Source: the supplement of paper PMC11451515

Columns and labels:
Conditions in all cases: 48 h
NOMO1 [1] = assay: cell viability relative to DMSO control; higher = less cytotoxic
In short: (§1)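 Viability was expressed as a per-plate percentage of DMSO wells, with cell-free wells as background. Leukemia cells (NOMO1 or SEM at 500 cells/well, P12-Ichikawa at 1000 cells/well) were adapted for at least four passages in each medium and seeded in 1536-well plates (5 μl). Library compounds in DMSO were pin-dosed over an 11-point threefold series from 47 μM to 0.79 nM, and CellTiter-Glo One luminescence was read after 48 h at 37°C.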

P12-Ichikawa [2] = assay: as above
In short: as §1

SEM cells [3] = assay: as above
In short: as §1

NOMO1 [4] = assay: AUC of viability dose-response curve (% viability x log10 dose units); higher = less sensitive
In short: (§2)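 Leukemia cells adapted to each medium were seeded in 1536-well plates (500 or 1000 cells/well) and given library compounds in DMSO for 48 h at 37°C. The 11 threefold doses spanned 47 μM to 0.79 nM, and CellTiter-Glo One luminescence was normalised per plate to DMSO and cell-free wells before four-parameter log-logistic fitting on log10 dose. Area under the curve was integrated with the trapezoidal rule, scaling curves above full viability and removing curves that failed quality control.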

P12-Ichikawa [5] = assay: as above
In short: as §2

SEM cells [6] = assay: as above
In short: as §2

Nc1ncnc2c1c(-c1cnc3[nH]ccc3c1)nn2C1CCCC1
cell viability [%]
Conditions	NOMO1 [1]	P12-Ichikawa [2]	SEM cells [3]
HPLM + 10% dialyzed FBS, 0.000781 µM	–	117	111
HPLM + 10% dialyzed FBS, 0.00234 µM	–	121	113
HPLM + 10% dialyzed FBS, 0.00702 µM	–	112	127
HPLM + 10% dialyzed FBS, 0.0211 µM	–	111	122
HPLM + 10% dialyzed FBS, 0.0632 µM	–	103	113
HPLM + 10% dialyzed FBS, 0.19 µM	–	106	105
HPLM + 10% dialyzed FBS, 0.569 µM	–	95.7	95.2
HPLM + 10% dialyzed FBS, 1.71 µM	–	81.3	69.6
HPLM + 10% dialyzed FBS, 5.12 µM	–	71.2	51.1
HPLM + 10% dialyzed FBS, 15.4 µM	–	52.2	36.2
HPLM + 10% dialyzed FBS, 46.1 µM	–	28.7	11
RPMI 5 mM glucose + 10% FBS, 0.000781 µM	108	122	81.9
RPMI 5 mM glucose + 10% FBS, 0.00234 µM	120	118	76.3
RPMI 5 mM glucose + 10% FBS, 0.00702 µM	141	122	85.1
RPMI 5 mM glucose + 10% FBS, 0.0211 µM	135	117	95.4
RPMI 5 mM glucose + 10% FBS, 0.0632 µM	119	106	94.8
RPMI 5 mM glucose + 10% FBS, 0.19 µM	114	96.5	73.6
RPMI 5 mM glucose + 10% FBS, 0.569 µM	112	90.1	68.8
RPMI 5 mM glucose + 10% FBS, 1.71 µM	93.5	63.5	49.2
RPMI 5 mM glucose + 10% FBS, 5.12 µM	66.7	53.7	33.8
RPMI 5 mM glucose + 10% FBS, 15.4 µM	54.4	40.3	24.7
RPMI 5 mM glucose + 10% FBS, 46.1 µM	45.4	26.2	6.03
RPMI 5 mM glucose + 10% dialyzed FBS, 0.000781 µM	106	–	123
RPMI 5 mM glucose + 10% dialyzed FBS, 0.00234 µM	119	–	120
RPMI 5 mM glucose + 10% dialyzed FBS, 0.00702 µM	103	–	125
RPMI 5 mM glucose + 10% dialyzed FBS, 0.0211 µM	109	–	114
RPMI 5 mM glucose + 10% dialyzed FBS, 0.0632 µM	131	–	129
RPMI 5 mM glucose + 10% dialyzed FBS, 0.19 µM	100	–	112
RPMI 5 mM glucose + 10% dialyzed FBS, 0.569 µM	104	–	99.6
RPMI 5 mM glucose + 10% dialyzed FBS, 1.71 µM	81.7	–	73.8
RPMI 5 mM glucose + 10% dialyzed FBS, 5.12 µM	61.8	–	59.5
RPMI 5 mM glucose + 10% dialyzed FBS, 15.4 µM	52.8	–	42.6
RPMI 5 mM glucose + 10% dialyzed FBS, 46.1 µM	45.8	–	6.97

AUC of viability dose-response curve
Conditions	NOMO1 [4]	P12-Ichikawa [5]	SEM cells [6]
HPLM + 10% dialyzed FBS	364	379	356
RPMI 5 mM glucose + 10% FBS	388	343	306
RPMI 5 mM glucose + 10% dialyzed FBS	397	326	360

CN(C)C1=CC=C(C=C1)C(C2=CC=C(C=C2)N(C)C)=C/3\C=C/C(/C=C3)=[N+](C)C
cell viability [%]
Conditions	NOMO1 [1]	P12-Ichikawa [2]	SEM cells [3]
HPLM + 10% dialyzed FBS, 0.000781 µM	102	114	101
HPLM + 10% dialyzed FBS, 0.00234 µM	114	107	98.3
HPLM + 10% dialyzed FBS, 0.00702 µM	136	122	113
HPLM + 10% dialyzed FBS, 0.0211 µM	132	116	98.1
HPLM + 10% dialyzed FBS, 0.0632 µM	103	115	116
HPLM + 10% dialyzed FBS, 0.19 µM	26.6	74.1	9.97
HPLM + 10% dialyzed FBS, 0.569 µM	9.97	18.5	4.77
HPLM + 10% dialyzed FBS, 1.71 µM	4.17	1.52	4.38
HPLM + 10% dialyzed FBS, 5.12 µM	4.13	1.65	4.51
HPLM + 10% dialyzed FBS, 15.4 µM	1.55	1.9	1.71
HPLM + 10% dialyzed FBS, 46.1 µM	0.245	0.24	1.2
RPMI 5 mM glucose + 10% FBS, 0.000781 µM	113	107	–
RPMI 5 mM glucose + 10% FBS, 0.00234 µM	98.4	103	–
RPMI 5 mM glucose + 10% FBS, 0.00702 µM	101	102	–
RPMI 5 mM glucose + 10% FBS, 0.0211 µM	113	111	–
RPMI 5 mM glucose + 10% FBS, 0.0632 µM	107	94.9	–
RPMI 5 mM glucose + 10% FBS, 0.19 µM	27.2	24.6	–
RPMI 5 mM glucose + 10% FBS, 0.569 µM	6.73	14.9	–
RPMI 5 mM glucose + 10% FBS, 1.71 µM	2.46	3.64	–
RPMI 5 mM glucose + 10% FBS, 5.12 µM	2.87	6.36	–
RPMI 5 mM glucose + 10% FBS, 15.4 µM	0.606	4.49	–
RPMI 5 mM glucose + 10% FBS, 46.1 µM	-0.00921	0.553	–
RPMI 5 mM glucose + 10% dialyzed FBS, 0.000781 µM	112	110	104
RPMI 5 mM glucose + 10% dialyzed FBS, 0.00234 µM	101	104	113
RPMI 5 mM glucose + 10% dialyzed FBS, 0.00702 µM	110	115	100
RPMI 5 mM glucose + 10% dialyzed FBS, 0.0211 µM	100	106	85.9
RPMI 5 mM glucose + 10% dialyzed FBS, 0.0632 µM	96.9	94.1	76.1
RPMI 5 mM glucose + 10% dialyzed FBS, 0.19 µM	33.1	34.3	8.49
RPMI 5 mM glucose + 10% dialyzed FBS, 0.569 µM	11.3	19.2	4.28
RPMI 5 mM glucose + 10% dialyzed FBS, 1.71 µM	5.56	10.9	2.86
RPMI 5 mM glucose + 10% dialyzed FBS, 5.12 µM	5.09	12.8	4.04
RPMI 5 mM glucose + 10% dialyzed FBS, 15.4 µM	1.49	3.78	1.22
RPMI 5 mM glucose + 10% dialyzed FBS, 46.1 µM	0.371	0.17	0.974

AUC of viability dose-response curve
Conditions	NOMO1 [4]	P12-Ichikawa [5]	SEM cells [6]
HPLM + 10% dialyzed FBS	225	253	226
RPMI 5 mM glucose + 10% FBS	232	233	218
RPMI 5 mM glucose + 10% dialyzed FBS	234	240	211

COC1=CC=C(C=C1)C/2=C/OC3=C(C(=CC(=C3)O)O)C2=O
cell viability [%]
Conditions	NOMO1 [1]	P12-Ichikawa [2]	SEM cells [3]
HPLM + 10% dialyzed FBS, 0.000781 µM	111	113	108
HPLM + 10% dialyzed FBS, 0.00234 µM	124	120	124
HPLM + 10% dialyzed FBS, 0.00702 µM	133	118	110
HPLM + 10% dialyzed FBS, 0.0211 µM	114	77.2	95.9
HPLM + 10% dialyzed FBS, 0.0632 µM	130	124	115
HPLM + 10% dialyzed FBS, 0.19 µM	123	120	114
HPLM + 10% dialyzed FBS, 0.569 µM	133	119	125
HPLM + 10% dialyzed FBS, 1.71 µM	122	123	124
HPLM + 10% dialyzed FBS, 5.12 µM	116	117	125
HPLM + 10% dialyzed FBS, 15.4 µM	114	105	131
HPLM + 10% dialyzed FBS, 46.1 µM	60.5	74.5	75.2
RPMI 5 mM glucose + 10% FBS, 0.000781 µM	–	108	90.7
RPMI 5 mM glucose + 10% FBS, 0.00234 µM	–	108	92.9
RPMI 5 mM glucose + 10% FBS, 0.00702 µM	–	113	101
RPMI 5 mM glucose + 10% FBS, 0.0211 µM	–	65.2	74.8
RPMI 5 mM glucose + 10% FBS, 0.0632 µM	–	120	103
RPMI 5 mM glucose + 10% FBS, 0.19 µM	–	120	100
RPMI 5 mM glucose + 10% FBS, 0.569 µM	–	133	108
RPMI 5 mM glucose + 10% FBS, 1.71 µM	–	121	106
RPMI 5 mM glucose + 10% FBS, 5.12 µM	–	123	124
RPMI 5 mM glucose + 10% FBS, 15.4 µM	–	127	114
RPMI 5 mM glucose + 10% FBS, 46.1 µM	–	123	98.2
RPMI 5 mM glucose + 10% dialyzed FBS, 0.000781 µM	111	118	98.7
RPMI 5 mM glucose + 10% dialyzed FBS, 0.00234 µM	116	118	115
RPMI 5 mM glucose + 10% dialyzed FBS, 0.00702 µM	120	119	122
RPMI 5 mM glucose + 10% dialyzed FBS, 0.0211 µM	130	82	77.4
RPMI 5 mM glucose + 10% dialyzed FBS, 0.0632 µM	156	131	133
RPMI 5 mM glucose + 10% dialyzed FBS, 0.19 µM	144	133	130
RPMI 5 mM glucose + 10% dialyzed FBS, 0.569 µM	144	129	132
RPMI 5 mM glucose + 10% dialyzed FBS, 1.71 µM	140	137	138
RPMI 5 mM glucose + 10% dialyzed FBS, 5.12 µM	140	133	143
RPMI 5 mM glucose + 10% dialyzed FBS, 15.4 µM	143	134	145
RPMI 5 mM glucose + 10% dialyzed FBS, 46.1 µM	106	93.7	132

AUC of viability dose-response curve
Conditions	NOMO1 [4]	P12-Ichikawa [5]	SEM cells [6]
HPLM + 10% dialyzed FBS	460	465	463
RPMI 5 mM glucose + 10% FBS	474	441	436
RPMI 5 mM glucose + 10% dialyzed FBS	453	453	435
